The values below come from patent publication US20150266920A1, “MACROCYCLIC KETOAMIDE IMMUNOPROTEASOME INHIBITORS” (HOFF-MANN-LA ROCHE INC., priority 2012, published 2015).

The target of assay [1] is T1, LMP7 (Mus musculus, UniProt O09061+P28063). To be noted: mouse CAIA and CIA arthritis models; cited from earlier work.
Assay [2] concerns the target T1, LMP7. The note with it: MRL/lpr lupus-prone mice; cited from earlier work.
For assay [3], the target named is T1, LMP7. The note with it: DSS-induced colitis model in mice; cited from earlier work.
Another assay deals with T2, β 5i (Homo sapiens, UniProt P20618+P28062).
T2 construct: protease activity associated with the proteasome complex in cultured cells; endogenous in cells; host or cells: Ramos cells
Put plainly: Cell-Based Proteasome Activity/Selectivity Assay, Ramos cells, substrate (ANW)2Rh110. To be noted: β5i substrate (ANW)2Rh110, read-out: Ic50 ramos: ac-(anw)2-r110. From the text:
(§1) Cell-Based Proteasome Activity/Selectivity Assay
(§2) The Cell-Based Proteasome subunit activity/selectivity assay was a panel of 5 fluorogenic assays that independently measured the activity of β5c or β 5i (chymotrypsin-like activity), β2c/2i (trypsin-like), and β 1c or β 1i (caspase-like) protease activity associated with the proteasome complex in cultured cells. Specifically, the following substrates were used for respective subunit activities: β 1i: (PAL)2Rh110, β 1c: (LLE)2 Rh110, β2c/2i: (KQL)2Rh110, β 5c: (WLA)2Rh110, β 5i: (ANW)2Rh110. The following procedure was followed:
(§3) Cell preparation: Plated 25 μl of Ramos cells (2×10^6/ml in DPBS) into half area plate (PerkinElmer Cat 6005569) to final 5×10^4 cells/well. Added 0.5 μl of 100×4-fold serial diluted test compounds or DMSO to each well. Highest concentration of compound tested was 20 thus compound serial dilution started from […]. Incubated for 30 minutes at 37° C. Then equilibrated at room temperature for 15 minutes. Added 25 μl of 2× reaction mix consisting of 0.025% digitonin, 20 μM of each substrates and 0.5M sucrose in DPBS. Shaked for one minute @ 700 rpm. Incubated for […] at room temperature. Then read the plates with an Envision multilabel plate reader (PerkinElmer) with 500 nm excitation/519 nm emission.

Another assay has as its target T3, β 5c (Homo sapiens, UniProt P20618+P28074).
T3 construct: protease activity associated with the proteasome complex in cultured cells; endogenous in cells; host or cells: Ramos cells
Nature of the assay: Cell-Based Proteasome Activity/Selectivity Assay, Ramos cells, substrate (WLA)2Rh110. The note with it: β5c substrate (WLA)2Rh110.
Source text: as §1, §2, §3

The subject of a further assay is β2c/2i. Nature of the assay: Cell-Based Proteasome Activity/Selectivity Assay, Ramos cells, substrate (KQL)2Rh110. To be noted: β2c/2i substrate (KQL)2Rh110.
Source text: as §1, §2, §3

For another assay, the target named is T4, β 1i (Homo sapiens, UniProt P28065+P40306).
T4 construct: protease activity associated with the proteasome complex in cultured cells; endogenous in cells; host or cells: Ramos cells
Put plainly: Cell-Based Proteasome Activity/Selectivity Assay, Ramos cells, substrate (PAL)2Rh110. The note with it: β1i substrate (PAL)2Rh110.
Source text: as §1, §2, §3

The target in another assay is T5, β 1c (Homo sapiens, UniProt P28072+Q99436).
T5 construct: protease activity associated with the proteasome complex in cultured cells; endogenous in cells; host or cells: Ramos cells
Nature of the assay: Cell-Based Proteasome Activity/Selectivity Assay, Ramos cells, substrate (LLE)2 Rh110. To be noted: β1c substrate (LLE)2 Rh110.
Source text: as §1, §2, §3

Another assay concerns IP 10 level. Nature of the assay: PBMC IP-10 Assay. The format is cell-based. The note with it: Homo sapiens, PBMCs stimulated with CpG Type A, assay not named in the column head. Here is the method: PBMCs were isolated from whole blood as follows: Blood was collected in a sterile environment in heparinized tubes. Blood was diluted with an equal volume PBS/2% FCS and 30 ml of this mixture was added to ACCUSPIN tubes containing 15 ml Histopaque-1077 already centrifuged at 800 g for 30 seconds and warmed up at room temperature. The tubes were then centrifuged at 800 g for 20 minutes at room temperature with no brake. The mononuclear band, just above the polyethylene frit, was removed by Pasteur pipet. These mononuclear cells were washed three times with sterile PBS, counted, and resuspended in RPMI 1640 supplemented with 10% heat inactivated fetal calf serum, 10 mM HEPES, 1 mM sodium pyruvate, penicillin (50 U/ml), streptomycin (50 μg/ml) and glutamine (2 mM) to approximately 1.5×10^6/ml. […] PBMC viability of cells remaining in the well was measured with ATPlite luminescence assay (Perkin-Elmer) per the manufacturer's instructions. Luminescence was measured on the Perkin-Elmer Envision, using the luminescence filter. IP 10 level was measured with CXCL10/IP10 AlphaLISA kit (Perkin-Elmer) per the manufacturer's instructions, except halving all volumes. Fluorescence was measured on the Envision Multilabel plate reader, using the AlphaScreen standard settings.

Bounds are passed on as bounds.

Regarding `COc1ccc(C[C@H](NC(=O)[C@H](C)NC(=O)CN2CCOCC2)C(=O)N[C@@H](Cc2ccccc2)C(=O)[C@@]2(C)CO2)cc1` [PR-957], the disease score entry at LMP7 [1] is “significantly decrease disease score”. Also, at LMP7 [2], the disease progression result was “prevented disease progression”; the “plasma cells numbers and levels of anti-dsDNA IgG” value is “reduced plasma cells numbers and levels of anti-dsDNA IgG”. Moreover, the “inflammation and tissue destruction” value at LMP7 [3] was “reduced inflammation and tissue destruction”.

One may read the IC50 as the concentration needed to halve the response being measured. What is called EC50 is the concentration that produces a half-maximal response. A low value points to an effect from little substance. As to `C[C@@H]1NC(=O)CCc2cccc(c2)-c2cccc(c2)CC[C@@H](C(=O)N[C@@H](Cc2ccccc2)C(=O)C(=O)NCc2ccccc2)NC1=O` [Example 1, (9S,12S)-12-Methyl-11,14-dioxo-10,13-diaza-tricyclo[15.3.1.1^2,6]docosa-1(20),2(22),3,5,17(21),18-hexaene-9-carboxylic acid ((S)-1-benzyl-2-benzylcarbamoyl-2-oxo-ethyl)-amide], the IC50 at β 5i is 19 nM; against β 5c, 353 nM; with β2c/2i it was greater than 20 µM; against β 1i, 1970 nM; at β 1c, greater than 20 µM. In the assay on IP 10 level, this molecule registered an EC50 of 347 nM.
